Reference: PMC6264262, “Synthesis and Antimalarial Activity of Novel Dihydro-Artemisinin Derivatives” (Molecules, 2011)

Biological target: T1, P. falciparum falcipain-2 (Plasmodium falciparum, UniProt Q8I6U4)
T1 construct: Recombinant falcipain-2 (30 nM) was incubated for 30 min at room temperature
T1 sequence (Q8I6U4 244-484): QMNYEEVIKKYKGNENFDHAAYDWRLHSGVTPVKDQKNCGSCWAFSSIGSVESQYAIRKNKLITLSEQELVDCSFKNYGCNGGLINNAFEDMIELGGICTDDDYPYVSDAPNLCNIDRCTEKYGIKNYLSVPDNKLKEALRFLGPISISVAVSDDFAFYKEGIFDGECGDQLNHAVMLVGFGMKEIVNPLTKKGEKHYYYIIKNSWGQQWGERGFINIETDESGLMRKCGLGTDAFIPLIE
Assay: in vitro falcipain-2 inhibition assay (fluorogenic substrate Z-Leu-Arg-AMC)
Type: biochemical
Settings: recombinant falcipain-2 30 nM, pH 5.5, substrate Z-Leu-Arg-AMC 25 μM; for Inhibition rate: at 10 μM concentration level; for IC50: 30 min preincubation, determined if inhibition rate larger than 20% at 10 μM
Method: The in vitro P. falciparum falcipain-2 inhibition assay against was carried out according to a previously reported method by taking N-(L-3-trans-carboxyoxiran-2-carbonyl)-L-leucyl)-amido(4-guanido)butane (E-64) as a positive control and DMSO as a negative control. Falcipain-2 could hydrolyse the fluorogenic substrate benzyloxycarbonyl-Leu-Arg-7-amino-4-methylcoumarin (Z-Leu-Arg-AMC) to produce coumarin and its activity could be evaluated by monitoring the fluorescence of the coumarin.
Recombinant falcipain-2 (30 nM) was incubated for 30 min at room temperature in 100 mM NaOAc, pH 5.5, 10 mM dithiothreitol (DTT), with different concentrations of 10a-l and 12a-f. These solutions were prepared from stock in DMSO (maximum concentration of DMSO in the assay was 1%). After incubation, the substrate Z-Leu-Arg-AMC with the same buffer was added to a final concentration of 25 μM. The increase in fluorescence (excitation at 355 nm and emission at 460 nm) was monitored for 30 min at room temperature with an automated microplate spectrofluorimeter (Biotek, Synergy 2). IC50 values were determined from plots of percent activity over compound concentration using the GraphPad Prism software if inhibition rates were larger than 20% at 10 μM concentration level.

SMILES | Inhibition rate [%] | IC50 [nM]
CC(C)C[C@H](NC(=O)[C@H]1O[C@@H]1C(=O)O)C(=O)NCCCCN=C(N)N (relative stereo) [Compound E-64, reference compound] | 100.0 | 19.7
CC1CCC2C(C)[C@@H](Oc3ccc(C=NNC(=S)Nc4ccccc4F)cc3)OC3OC4(C)CCC1C32OO4 (stereo partly drawn) [Compound 10a, 4-[(10S)-Dihydroartemisinin-10-oxy]benzaldehyde N^4-(2-fluorophenyl)thiosemicarbazone] | 72.48 | 2510
CC1CCC2C(C)[C@@H](Oc3ccc(C=NNC(=S)Nc4ccc(F)cc4)cc3)OC3OC4(C)CCC1C32OO4 (stereo partly drawn) [Compound 10b, 4-[(10S)-Dihydroartemisinin-10-oxy]benzaldehyde N^4-(4-fluorophenyl)thiosemicarbazone] | 59.76 | 2170
CCOc1ccc(NC(=S)NN=Cc2ccc(O[C@H]3OC4OC5(C)CCC6C(C)CCC(C3C)C46OO5)cc2)cc1 (stereo partly drawn) [Compound 10c, 4-[(10S)-Dihydroartemisinin-10-oxy]benzaldehyde N^4-(4-ethoxyphenyl)thiosemicarbazone] | 87.42 | 520
Cc1ccc(C)c(NC(=S)NN=Cc2ccc(O[C@H]3OC4OC5(C)CCC6C(C)CCC(C3C)C46OO5)cc2)c1 (stereo partly drawn) [Compound 10d, 4-[(10S)-Dihydroartemisinin-10-oxy]benzaldehyde N^4-(2,5-dimethylphenyl)thiosemicarbazone] | 75.28 | 550
Cc1cc(C)cc(NC(=S)NN=Cc2ccc(O[C@H]3O[C@@H]4O[C@@]5(C)CC[C@H]6[C@H](C)CC[C@@H]([C@H]3C)[C@@]46OO5)cc2)c1 [Compound 10e, 4-[(10S)-Dihydroartemisinin-10-oxy]benzaldehyde N^4-(3,5-dimethylphenyl)thiosemicarbazone] | 74.06 | 1350
Cc1c(Cl)cccc1NC(=S)NN=Cc1ccc(O[C@H]2OC3OC4(C)CCC5C(C)CCC(C2C)C35OO4)cc1 (stereo partly drawn) [Compound 10f, 4-[(10S)-Dihydroartemisinin-10-oxy]benzaldehyde N^4-(3-chloro-2-methylphenyl)thiosemicarbazone] | 75.62 | 984
CC1CCC2C(C)[C@@H](Oc3ccc(C=NNC(=O)Nc4ccccc4F)cc3)OC3OC4(C)CCC1C32OO4 (stereo partly drawn) [Compound 10g, 4-[(10S)-Dihydroartemisinin-10-oxy]benzaldehyde N^4-(2-fluorophenyl)semicarbazone] | 76.74 | 2250
CC1CCC2C(C)[C@@H](Oc3ccc(C=NNC(=O)Nc4ccc(F)cc4)cc3)OC3OC4(C)CCC1C32OO4 (stereo partly drawn) [Compound 10h, 4-[(10S)-Dihydroartemisinin-10-oxy]benzaldehyde N^4-(4-fluorophenyl)semicarbazone] | 84.60 | 1020
CCOc1ccc(NC(=O)NN=Cc2ccc(O[C@H]3OC4OC5(C)CCC6C(C)CCC(C3C)C46OO5)cc2)cc1 (stereo partly drawn) [Compound 10i, 4-[(10S)-Dihydroartemisinin-10-oxy]benzaldehyde N^4-(4-ethoxyphenyl)semicarbazone] | 72.70 | 700
Cc1ccc(C)c(NC(=O)NN=Cc2ccc(O[C@H]3OC4OC5(C)CCC6C(C)CCC(C3C)C46OO5)cc2)c1 (stereo partly drawn) [Compound 10j, 4-[(10S)-Dihydroartemisinin-10-oxy]benzaldehyde N^4-(2,5-dimethylphenyl)semicarbazone] | 59.01 | 2280
Cc1cc(C)cc(NC(=O)NN=Cc2ccc(O[C@H]3O[C@@H]4O[C@@]5(C)CC[C@H]6[C@H](C)CC[C@@H]([C@H]3C)[C@@]46OO5)cc2)c1 [Compound 10k, 4-[(10S)-Dihydroartemisinin-10-oxy]benzaldehyde N^4-(3,5-dimethylphenyl)semicarbazone] | 87.88 | 1030
Cc1c(Cl)cccc1NC(=O)NN=Cc1ccc(O[C@H]2OC3OC4(C)CCC5C(C)CCC(C2C)C35OO4)cc1 (stereo partly drawn) [Compound 10l, 4-[(10S)-Dihydroartemisinin-10-oxy]benzaldehyde N^4-(3-chloro-2-methylphenyl)semicarbazone] | 81.82 | 2540
CC1CCC2C(C)[C@H](OC(=O)c3ccc(C=NNC(=O)Nc4ccccc4F)cc3)OC3OC4(C)CCC1C32OO4 (stereo partly drawn) [Compound 12a, 4-[(10S)-Dihydroartemisinin-10-oxycarbonyl]benzaldehyde N^4-(2-fluorophenyl)semicarbazone] | 79.32 | 470
CC1CCC2C(C)[C@H](OC(=O)c3ccc(C=NNC(=O)Nc4ccc(F)cc4)cc3)OC3OC4(C)CCC1C32OO4 (stereo partly drawn) [Compound 12b, 4-[(10S)-Dihydroartemisinin-10-oxycarbonyl]benzaldehyde N^4-(4-fluorophenyl)semicarbazone] | 69.25 | 650
CCOc1ccc(NC(=O)NN=Cc2ccc(C(=O)O[C@@H]3OC4OC5(C)CCC6C(C)CCC(C3C)C46OO5)cc2)cc1 (stereo partly drawn) [Compound 12c, 4-[(10S)-Dihydroartemisinin-10-oxycarbonyl]benzaldehyde N^4-(4-ethoxyphenyl)semicarbazone] | 75.89 | 290
Cc1ccc(C)c(NC(=O)NN=Cc2ccc(C(=O)O[C@@H]3OC4OC5(C)CCC6C(C)CCC(C3C)C46OO5)cc2)c1 (stereo partly drawn) [Compound 12d, 4-[(10S)-Dihydroartemisinin-10-oxycarbonyl]benzaldehyde N^4-(2,5-dimethylphenyl)semicarbazone] | 76.61 | 2960
Cc1cc(C)cc(NC(=O)NN=Cc2ccc(C(=O)O[C@@H]3O[C@@H]4O[C@@]5(C)CC[C@H]6[C@H](C)CC[C@@H]([C@H]3C)[C@@]46OO5)cc2)c1 [Compound 12e, 4-[(10S)-Dihydroartemisinin-10-oxycarbonyl]benzaldehyde N^4-(3,5-dimethylphenyl)semicarbazone] | 71.62 | 570
Cc1c(Cl)cccc1NC(=O)NN=Cc1ccc(C(=O)O[C@@H]2OC3OC4(C)CCC5C(C)CCC(C2C)C35OO4)cc1 (stereo partly drawn) [Compound 12f, 4-[(10S)-Dihydroartemisinin-10-oxycarbonyl]benzaldehyde N^4-(3-chloro-2-methylphenyl)semicarbaz-one] | 74.67 | 10600
